Measured values from US11104630B2, “Synthesis of mono-chlorinated acetophenone” (SIEGFRIED AG, priority 2017, dated 2021).

Test: Solubility of the starting material in the solvent
Type: physicochemical
Details: solvent MTBE, 20° C., until clear solution
Protocol: Solubility of the Starting Material in the Solvent
To 1 g of HAP is added 5 ml of solvent. The mixture is stirred in a water bath at 20° C. The solvent is further slowly added under stirring until a clear solution appears.
The amount of used solvent is noted.

In the case of CC(=O)c1cccc(O)c1 [HAP, 3-hydroxy-acetophenon], the “Solvent in ml per g HAP” value is reported as 9 ml per g HAP.
